We go through five molecules from publication PMC10114720.

A short description of data set [1]: monoprotic acid or base: log K of the neutral species extrapolated from the linear regression of D on the neutral fraction (from pKa and pH; the paper's eq. for monoprotic IOCs), the slope giving K of the neutral species; replicates column holds the table's 95% confidence limits. PDMS sheets cleaned by Soxhlet with ethyl acetate; batch shaking method with a mixture of all chemicals at several PDMS-mass to water-volume ratios and spiked levels; vials shaken on an orbital shaker at room temperature in the dark, sampled at two equilibration times; PDMS extracts and water quantified by LC-HRMS (Orbitrap); D from the slope of C_PDMS on C_w or their ratio. The settings on record: PDMS (polydimethylsiloxane silicone sheet); phosphate buffer at three target pH values (the paper's methods).

A short description of data set [2]: neutral chemical: log K is the mean of log D over all measurements at the three pH values (D shown independent of pH, paired t-test); sd is the table's stddev. PDMS sheets cleaned by Soxhlet with ethyl acetate; batch shaking method with a mixture of all chemicals at several PDMS-mass to water-volume ratios and spiked levels; vials shaken on an orbital shaker at room temperature in the dark, sampled at two equilibration times; PDMS extracts and water quantified by LC-HRMS (Orbitrap); D from the slope of C_PDMS on C_w or their ratio. The settings on record: PDMS (polydimethylsiloxane silicone sheet); phosphate buffer at three target pH values (the paper's methods).

Data set [3] in a line: PDMS sheets cleaned by Soxhlet with ethyl acetate; batch shaking method with a mixture of all chemicals at several PDMS-mass to water-volume ratios and spiked levels; vials shaken on an orbital shaker at room temperature in the dark, sampled at two equilibration times; PDMS extracts and water quantified by LC-HRMS (Orbitrap); D from the slope of C_PDMS on C_w or their ratio; value is the mean over that pH's experiments (individual experiments in the SI's concentrations table), sd is the table's stdev. The conditions noted are these: PDMS (polydimethylsiloxane silicone sheet), phosphate buffer at three target pH values (the paper's methods).

For the molecule `N#CSCSc1nc2ccccc2s1`, the “log K PDMS/w (neutral species)” value in data set [1] is 1.892 log units; D and K as the pape; in data set [2] it was 1.857 log units; D and K as the pape. For the same molecule, the “log D PDMS/w (apparent distribution ratio at the stated pH)” value was 1.914 log units; D and K as the pape in data set [3] (pH 3); 1.821 log units; D and K as the pape in data set [3] (pH 7.4).

Regarding `O=C(/C=C/C=C/c1ccc2c(c1)OCO2)N1CCCCC1`, in data set [2], the “log K PDMS/w (neutral species)” value is 3.135 log units; D and K as the pape. In addition, the “log D PDMS/w (apparent distribution ratio at the stated pH)” value in data set [3] (pH 3) was 3.24 log units; D and K as the pape; in data set [3] (pH 7.4) it was 3.109 log units; D and K as the pape; in data set [3] (pH 11.5), 3.066 log units; D and K as the pape.

Take `Cc1c(C(C)C)c(=O)n(-c2ccccc2)n1C`: in data set [2], the “log K PDMS/w (neutral species)” value is 1.593 log units; D and K as the pape. Besides, the “log D PDMS/w (apparent distribution ratio at the stated pH)” value in data set [3] (pH 3) is 1.579 log units; D and K as the pape; in data set [3] (pH 7.4) it was 1.554 log units; D and K as the pape; in data set [3] (pH 11.5) it was 1.65 log units; D and K as the pape.

For the molecule `Cc1cccc(C)c1N(Cn1cccn1)C(=O)CS(C)=O` (centres unmarked), in data set [2], the “log K PDMS/w (neutral species)” value is 0.5949 log units; D and K as the pape. The “log D PDMS/w (apparent distribution ratio at the stated pH)” value in data set [3] (pH 3) is 0.5745 log units; D and K as the pape; in data set [3] (pH 7.4), 0.5892 log units; D and K as the pape; in data set [3] (pH 11.5), 0.6192 log units; D and K as the pape.

With `CCNc1nc(N)nc(Cl)n1`, the “log K PDMS/w (neutral species)” value in data set [2] is 0.1961 log units; D and K as the pape. The “log D PDMS/w (apparent distribution ratio at the stated pH)” value in data set [3] (pH 3) was 0.21 log units; D and K as the pape; in data set [3] (pH 7.4), 0.2883 log units; D and K as the pape; in data set [3] (pH 11.5), 0.09 log units; D and K as the pape.
